# Biological target: low-density lipoprotein receptor-related protein 1 (LRP1), minireceptor mLRPIV (Homo sapiens, UniProt Q07954)
# Assay: SPR (Biacore T200, mLRPIV immobilized on CM5 chip); also inhibits DKK3 binding to mLRPIV by SPR, IC50 […]
# low-density lipoprotein receptor-related protein 1 (LRP1), minireceptor mLRPIV, sequence (Q07954 3331-3778 limits assumed): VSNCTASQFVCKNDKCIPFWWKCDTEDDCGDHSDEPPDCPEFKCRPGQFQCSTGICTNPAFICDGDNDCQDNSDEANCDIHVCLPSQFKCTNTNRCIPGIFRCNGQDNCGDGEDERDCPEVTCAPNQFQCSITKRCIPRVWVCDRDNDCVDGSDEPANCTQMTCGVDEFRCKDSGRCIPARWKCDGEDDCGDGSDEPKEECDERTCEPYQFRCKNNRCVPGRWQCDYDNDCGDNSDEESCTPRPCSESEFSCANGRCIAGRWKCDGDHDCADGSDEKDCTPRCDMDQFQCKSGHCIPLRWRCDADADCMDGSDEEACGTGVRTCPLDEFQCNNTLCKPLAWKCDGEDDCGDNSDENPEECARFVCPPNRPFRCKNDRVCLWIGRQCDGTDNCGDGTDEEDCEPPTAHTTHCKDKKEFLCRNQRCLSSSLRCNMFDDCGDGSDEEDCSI
smiles,measurement,value
Cc1nn(-c2ccc(F)cc2)c(C)c1CNC1CCN(C2CC2)CC1 [SJ-300],Kd,7.9 µM

# Reference: publication PMC12594171, “DKK3-LRP1 complex and a chemical inhibitor regulate Aβ clearance in models of Alzheimer’s disease” (Science Advances, 2025)
